Eleven compounds from patent publication US9840501B2, “Morpholin-pyridine derivatives” (Hoffmann-La Roche Inc., priority 2014, dated 2017) can be followed below.

One experiment addresses rat TAAR1 (Rattus norvegicus (Rat), UniProt Q923Y9). As to the kind of experiment: Radioligand binding assay on rat TAAR1. Particulars: rat TAAR1, membranes of stably transfected HEK-293 cells; second value of the pair; read-out: Ki (μM) mouse/rat: rat. The procedure, abridged: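 Membranes from HEK293 cells stably expressing rat TAAR1, in 20 mM HEPES-NaOH pH 7.4; displacement of 3[H]-(S)-4-[(ethyl-phenyl-amino)-methyl]-4,5-dihydro-oxazol-2-ylamine, nonspecific binding with 10 μM unlabeled ligand. Compounds 10 pM to 10 μM in duplicate, 1 h at 4 °C, filtration and scintillation counting.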

A further experiment has as its target mouse TAAR1 (Mus musculus (Mouse), UniProt Q923Y8). As to the kind of experiment: Radioligand binding assay on mouse TAAR1. The conditions noted are these: mouse TAAR1, membranes of stably transfected HEK-293 cells; first value of the pair; read-out: Ki (μM) mouse/rat: mouse. In short, it runs like this:
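Membranes from HEK293 cells stably expressing mouse TAAR1, in 20 mM HEPES-NaOH pH 7.4 with 0.1 mM EDTA, incubated 1 h at 4 °C with ^3[H]-(S)-4-[(ethyl-phenyl-amino)-methyl]-4,5-dihydro-oxazol-2-ylamine and compounds (10 pM to 10 μM, duplicates). Nonspecific binding with 10 μM unlabeled ligand; bound radioactivity counted after filtration.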

mouse TAAR1, sequence (Q923Y8 whole entry): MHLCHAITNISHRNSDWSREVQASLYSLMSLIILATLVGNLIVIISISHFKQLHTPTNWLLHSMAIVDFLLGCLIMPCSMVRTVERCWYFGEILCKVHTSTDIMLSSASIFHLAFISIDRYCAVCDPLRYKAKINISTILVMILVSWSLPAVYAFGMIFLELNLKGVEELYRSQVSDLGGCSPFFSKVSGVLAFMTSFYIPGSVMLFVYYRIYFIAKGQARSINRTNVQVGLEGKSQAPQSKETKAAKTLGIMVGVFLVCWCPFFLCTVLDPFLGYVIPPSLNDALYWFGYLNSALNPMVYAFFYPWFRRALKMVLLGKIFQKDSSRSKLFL
rat TAAR1, sequence (Q923Y9 whole entry): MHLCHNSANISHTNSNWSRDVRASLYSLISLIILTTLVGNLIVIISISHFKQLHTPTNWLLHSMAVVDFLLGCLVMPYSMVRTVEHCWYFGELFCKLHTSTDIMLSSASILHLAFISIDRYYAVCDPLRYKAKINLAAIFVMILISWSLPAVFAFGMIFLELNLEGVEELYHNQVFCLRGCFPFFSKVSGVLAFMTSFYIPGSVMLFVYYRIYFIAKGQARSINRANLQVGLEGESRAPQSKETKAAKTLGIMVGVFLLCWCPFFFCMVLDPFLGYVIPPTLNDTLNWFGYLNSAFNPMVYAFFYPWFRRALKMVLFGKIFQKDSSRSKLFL

`FC(F)(F)c1ccc(Nc2ccc([C@H]3CNCCO3)nc2)cn1` [Example 27, 6-[(2R)-Morpholin-2-yl]-N-[6-(trifluoromethyl)-3-pyridyl]pyridin-3-amine]: the Ki on rat TAAR1 came out at 1.1 µM; at mouse TAAR1 it was 0.074 µM.

For `CCc1n[nH]c(C(=O)Nc2ccc([C@@H]3CNCCO3)nc2)c1Cl` [Example 76, 4-Chloro-3-ethyl-N-[6-[(2S)-morpholin-2-yl]-3-pyridyl]-1H-pyrazole-5-carboxamide], the Ki was determined as 0.0384 µM on rat TAAR1 and 0.0063 µM at mouse TAAR1.

Regarding `CC(C)Cc1cc(C(=O)Nc2ccc([C@@H]3CNCCO3)nc2)[nH]n1` [Example 88, 3-Isobutyl-N-[6-[(2S)-morpholin-2-yl]-3-pyridyl]-1H-pyrazole-5-carboxamide], the Ki at rat TAAR1 was determined as 0.011 µM; at mouse TAAR1, 0.0113 µM.

Regarding `CC(C)n1nc(OCC(F)(F)F)cc1C(=O)Nc1ccc([C@H]2CNCCO2)nc1` [Example 99, 2-Isopropyl-N-[6-[(2R)-morpholin-2-yl]-3-pyridyl]-5-(2,2,2-trifluoroethoxy)pyrazole-3-carboxamide], the Ki at rat TAAR1 was found to be 0.0041 µM; at mouse TAAR1 it was 0.0242 µM.

For the compound `O=C(Nc1ccc([C@@H]2CNCCO2)nc1)c1[nH]nc(C2CC2)c1Br` [Example 81, 4-Bromo-3-cyclopropyl-N-[6-[(2S)-morpholin-2-yl]-3-pyridyl]-1H-pyrazole-5-carboxamide], the Ki was determined as 0.0152 µM at rat TAAR1 and 0.006 µM on mouse TAAR1.

Consider `CC(C)n1nc(OCC(F)(F)F)cc1C(=O)Nc1ccc([C@@H]2CNCCO2)nc1` [Example 93, 2-Isopropyl-N-[6-[(2S)-morpholin-2-yl]-3-pyridyl]-5-(2,2,2-trifluoroethoxy)pyrazole-3-carboxamide], for which the Ki on rat TAAR1 was determined as 0.0023 µM; at mouse TAAR1, 0.0215 µM.

`O=C(Nc1cccc(Cl)c1)Nc1cnc(C2CNCCO2)c(Cl)c1` (racemic) [Example 109, (RS)-1-(5-Chloro-6-morpholin-2-yl-3-pyridyl)-3-(3-chlorophenyl)urea]: the Ki stood at 0.019 µM at rat TAAR1 and 0.0543 µM at mouse TAAR1.

For the compound `FC(F)(F)c1ccc(Nc2ccc([C@@H]3CNCCO3)nc2)cn1` [Example 22, 6-[(2S)-Morpholin-2-yl]-N-[6-(trifluoromethyl)-3-pyridyl]pyridin-3-amine], the figures for the Ki on rat TAAR1 and at mouse TAAR1 were 0.247 µM and 0.0126 µM, respectively.

Take `CC(C)c1n[nH]c(C(=O)Nc2ccc([C@H]3CNCCO3)nc2)c1Cl` [Example 115, 4-Chloro-3-isopropyl-N-[6-[(2R)-morpholin-2-yl]-3-pyridyl]-1H-pyrazole-5-carboxamide]: the Ki at rat TAAR1 is 0.009 µM; on mouse TAAR1 it was 0.0087 µM.

`FC(F)(F)c1cccc(Nc2ccc([C@H]3CNCCO3)nc2)n1` [Example 50, N-[6-[(2R)-Morpholin-2-yl]-3-pyridyl]-6-(trifluoromethyl)pyridin-2-amine]: the values for the Ki at rat TAAR1 and at mouse TAAR1 were 0.122 µM and 0.005 µM, respectively.

`CC(C)Cc1cc(C(=O)Nc2ccc([C@H]3CNCCO3)nc2)[nH]n1` [Example 94, 3-Isobutyl-N-[6-[(2R)-morpholin-2-yl]-3-pyridyl]-1H-pyrazole-5-carboxamide]: the Ki was 0.107 µM on rat TAAR1 and 0.0216 µM on mouse TAAR1.
